According to US20130303509A1, “NAMPT INHIBITORS” (AbbVie Inc., priority 2012, published 2013):
pIC50: −log10 of the molar value. Values belong to the compound of their own block, whether it stands above or below them.

System: PC3 cells
Test: NAMPT Cell Proliferation Assay
Format: cell-based
Conditions: Homo sapiens, PC-3, 120 h, 5 days incubation, cell viability by Cell Titer Glo
Outline: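 Five-day CellTiter-Glo viability readout in PC3 cells grown in RPMI/10% heat-inactivated FBS. Compounds added after overnight attachment as a 10-fold dilution series, […]. Percent inhibition fitted to sigmoidal dose-response to derive IC50.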

Structure (SMILES): Cc1ccc(C(=O)N2CCC(c3ccc(NC(=O)[C@H]4CCN(c5cccnn5)C4)cc3)CC2)cc1 [Example 631, (3S)-N-{4-[1-(4-methylbenzoyl)piperidin-4-yl]phenyl}-1-(pyridazin-3-yl)pyrrolidine-3-carboxamide]
pIC50: 8.02

Structure (SMILES): CCOCC(=O)N1CCC(c2ccc(NC(=O)[C@H]3CCN(c4cccnn4)C3)cc2)CC1 [Example 635, (3S)-N-{4-[1-(ethoxyacetyl)piperidin-4-yl]phenyl}-1-(pyridazin-3-yl)pyrrolidine-3-carboxamide]
pIC50: 7.38

Structure (SMILES): Cc1ccc(OCC(=O)N2CCC(c3ccc(NC(=O)[C@H]4CCN(c5cccnn5)C4)cc3)CC2)cc1 [Example 636, (3S)-N-(4-{1-[(4-methylphenoxy)acetyl]piperidin-4-yl}phenyl)-1-(pyridazin-3-yl)pyrrolidine-3-carboxamide]
pIC50: 7.08

Structure (SMILES): O=C(Nc1ccc(C2CCN(C(=O)C3CCOC3)CC2)cc1)[C@H]1CCN(c2cccnn2)C1 (stereo partly drawn) [Example 638, (3S)-1-(pyridazin-3-yl)-N-{4-[1-(tetrahydrofuran-3-ylcarbonyl)piperidin-4-yl]phenyl}pyrrolidine-3-carboxamide]
pIC50: 7.52

Structure (SMILES): O=C(Nc1ccc(C2CCN(C(=O)Cc3cccc4ccccc34)CC2)cc1)[C@H]1CCN(c2cccnn2)C1 [Example 641, (3S)-N-{4-[1-(naphthalen-1-ylacetyl)piperidin-4-yl]phenyl}-1-(pyridazin-3-yl)pyrrolidine-3-carboxamide]
pIC50: 7.14

Compounds with a higher pIC50, results first:

pIC50: 8.04
Structure (SMILES): CO[C@@H](C(=O)N1CCC(c2ccc(NC(=O)[C@H]3CCN(c4cccnn4)C3)cc2)CC1)c1ccccc1 [Example 634, (3S)-N-(4-{1-[(2R)-2-methoxy-2-phenylacetyl]piperidin-4-yl}phenyl)-1-(pyridazin-3-yl)pyrrolidine-3-carboxamide]

pIC50: 8.05
Structure (SMILES): CO[C@H](C(=O)N1CCC(c2ccc(NC(=O)[C@H]3CCN(c4cccnn4)C3)cc2)CC1)c1ccccc1 [Example 633, (3S)-N-(4-{1-[(2S)-2-methoxy-2-phenylacetyl]piperidin-4-yl}phenyl)-1-(pyridazin-3-yl)pyrrolidine-3-carboxamide]

pIC50: 8.06
Structure (SMILES): CC[C@H](C(=O)N1CCC(c2ccc(NC(=O)[C@H]3CCN(c4cccnn4)C3)cc2)CC1)c1ccccc1 [Example 632, (3S)-N-(4-{1-[(2S)-2-phenylbutanoyl]piperidin-4-yl}phenyl)-1-(pyridazin-3-yl)pyrrolidine-3-carboxamide]

pIC50: 8.07
Structure (SMILES): O=C(Nc1ccc(C2CCN(C(=O)CC3CC3)CC2)cc1)[C@H]1CCN(c2cccnn2)C1 [Example 643, (3S)-N-{4-[1-(cyclopropylacetyl)piperidin-4-yl]phenyl}-1-(pyridazin-3-yl)pyrrolidine-3-carboxamide]

pIC50: 8.09
Structure (SMILES): O=C(Nc1ccc(C2CCN(C(=O)c3cccc4ccccc34)CC2)cc1)[C@H]1CCN(c2cccnn2)C1 [Example 639, (3S)-N-{4-[1-(naphthalen-1-ylcarbonyl)piperidin-4-yl]phenyl}-1-(pyridazin-3-yl)pyrrolidine-3-carboxamide]

pIC50: 8.14
Structure (SMILES): O=C(Nc1ccc(C2CCN(C(=O)CCCc3cccs3)CC2)cc1)[C@H]1CCN(c2cccnn2)C1 [Example 642, (3S)-1-(pyridazin-3-yl)-N-(4-{1-[4-(thiophen-2-yl)butanoyl]piperidin-4-yl}phenyl)pyrrolidine-3-carboxamide]

pIC50: 8.53
Structure (SMILES): O=C(Nc1ccc(C2CCN(C(=O)Cc3c(Cl)cccc3Cl)CC2)cc1)[C@H]1CCN(c2cccnn2)C1 [Example 640, (3S)-N-(4-{1-[(2,6-dichlorophenyl)acetyl]piperidin-4-yl}phenyl)-1-(pyridazin-3-yl)pyrrolidine-3-carboxamide]

pIC50: 8.91
Structure (SMILES): O=C(Nc1ccc(C2CCN(C(=O)c3ccccc3F)CC2)cc1)[C@H]1CCN(c2cccnn2)C1 [Example 637, (3S)-N-{4-[1-(2-fluorobenzoyl)piperidin-4-yl]phenyl}-1-(pyridazin-3-yl)pyrrolidine-3-carboxamide]
